From ChEMBL document CHEMBL3885861, “Open TG-GATES”

Species on record: Rattus norvegicus
Assay: Open TG-GATES - Regimen: Single
Assay type: toxicity, organism-based, Sprague-Dawley
Set-up: regimen Single, gender Male, age 6 weeks
Conditions: in vivo, po, route gavage; for APTT / Bas / Eos / Fbg / Hb / Ht / Lym / MCHC / MCV / Mono / Neu / PT / Plat / RBC / Ret / WBC: tissue Blood; for KIDNEY_L / KIDNEY_R / KIDNEY_TOTAL: tissue Kidney; for LIVER: tissue Liver; for ALP / ALT / AST / BUN / CRE / DBIL / GLC / IP / K / LDH / Na / PL / RALB / TBIL / TC / TG / TP / gamma-GTP: tissue Plasma
[1] = 0 mg/kg, 3 h, dose level Control
[2] = 0 mg/kg, 6 h, dose level Control
[3] = 0 mg/kg, 9 h, dose level Control
[4] = 0 mg/kg, 24 h, dose level Control
[5] = 300 mg/kg, 24 h, dose level Low

## C#C[C@]1(O)CC[C@H]2[C@@H]3CCC4=Cc5oncc5C[C@]4(C)[C@H]3CC[C@@]21C [DANAZOL]
[1]
  TERMINAL_BW: 212.9 g
  APTT: 23 s
  Bas: 0%
  Eos: 1%
  Fbg: 292.6 mg/dL
  Hb: 13.2 g/dL
  Ht: 40%
  Lym: 77.2%
  MCHC: 33.1%
  MCV: 62.5 fL
  Mono: 2.4%
  Neu: 19.6%
  PT: 15.8 s
  Plat: 111.7 x10_4/uL
  RBC: 641.4 x10_4/ul
  Ret: 7%
  WBC: 76.3 x10_2/uL
  KIDNEY_L: 0.9 g
  KIDNEY_R: 0.9 g
  KIDNEY_TOTAL: 1.9 g
  LIVER: 10.1 g
  ALP: 1527.4 IU/L
  ALT: 41.8 IU/L
  AST: 78.2 IU/L
  BUN: 14.2 mg/dL
  CRE: 0.1 mg/dL
  DBIL: 0 mg/dL
  GLC: 187.6 mg/dL
  IP: 7.9 mg/dL
  K: 4.1 meq/L
  LDH: 204.4 IU/L
  Na: 142.8 meq/L
  PL: 131.8 mg/dL
  RALB: 3 g/dL
  TBIL: 0.01 mg/dL
  TC: 76.8 mg/dL
  TG: 70.8 mg/dL
  TP: 5.5 g/dL
  gamma-GTP: 2 IU/L
[2]
  TERMINAL_BW: 212.9 g
  APTT: 23.5 s
  Bas: 0%
  Eos: 1%
  Fbg: 300.6 mg/dL
  Hb: 13.1 g/dL
  Ht: 39.8%
  Lym: 81.2%
  MCHC: 32.8%
  MCV: 63 fL
  Mono: 2.2%
  Neu: 14.8%
  PT: 16.1 s
  Plat: 114.9 x10_4/uL
  RBC: 632 x10_4/ul
  Ret: 7.2%
  WBC: 105 x10_2/uL
  KIDNEY_L: 0.9 g
  KIDNEY_R: 1 g
  KIDNEY_TOTAL: 1.9 g
  LIVER: 9.1 g
  ALP: 1276.8 IU/L
  ALT: 39.4 IU/L
  AST: 73.4 IU/L
  BUN: 9.2 mg/dL
  CRE: 0.1 mg/dL
  DBIL: 0 mg/dL
  GLC: 182 mg/dL
  IP: 9 mg/dL
  K: 4.3 meq/L
  LDH: 168.6 IU/L
  Na: 141 meq/L
  PL: 118.2 mg/dL
  RALB: 3 g/dL
  TBIL: 0.02 mg/dL
  TC: 65.4 mg/dL
  TG: 49.4 mg/dL
  TP: 5.3 g/dL
  gamma-GTP: 1.4 IU/L
[3]
  TERMINAL_BW: 209.9 g
  APTT: 22.7 s
  Bas: 0%
  Eos: 0.2%
  Fbg: 295.4 mg/dL
  Hb: 13.3 g/dL
  Ht: 40.9%
  Lym: 83%
  MCHC: 32.5%
  MCV: 64 fL
  Mono: 2%
  Neu: 13.6%
  PT: 16.3 s
  Plat: 114.3 x10_4/uL
  RBC: 639.2 x10_4/ul
  Ret: 7.6%
  WBC: 87.3 x10_2/uL
  KIDNEY_L: 1 g
  KIDNEY_R: 1 g
  KIDNEY_TOTAL: 2 g
  LIVER: 9.1 g
  ALP: 1266 IU/L
  ALT: 33.2 IU/L
  AST: 63.6 IU/L
  BUN: 11.2 mg/dL
  CRE: 0.1 mg/dL
  DBIL: 0 mg/dL
  GLC: 199.8 mg/dL
  IP: 10.1 mg/dL
  K: 4.2 meq/L
  LDH: 144.2 IU/L
  Na: 141.8 meq/L
  PL: 124 mg/dL
  RALB: 2.9 g/dL
  TBIL: 0.016 mg/dL
  TC: 69.8 mg/dL
  TG: 54.8 mg/dL
  TP: 5.4 g/dL
  gamma-GTP: 1.2 IU/L
[4]
  TERMINAL_BW: 231.9 g
  APTT: 23.6 s
  Bas: 0%
  Eos: 0.8%
  Fbg: 281 mg/dL
  Hb: 13.3 g/dL
  Ht: 40.2%
  Lym: 81.4%
  MCHC: 32.9%
  MCV: 63.2 fL
  Mono: 2.2%
  Neu: 14.8%
  PT: 15.7 s
  Plat: 114.7 x10_4/uL
  RBC: 637.4 x10_4/ul
  Ret: 7.3%
  WBC: 102.5 x10_2/uL
  KIDNEY_L: 1 g
  KIDNEY_R: 1 g
  KIDNEY_TOTAL: 2.1 g
  LIVER: 11.3 g
  ALP: 1604 IU/L
  ALT: 48.2 IU/L
  AST: 74.8 IU/L
  BUN: 18.6 mg/dL
  CRE: 0.1 mg/dL
  DBIL: 0 mg/dL
  GLC: 197.8 mg/dL
  IP: 7.8 mg/dL
  K: 4.2 meq/L
  LDH: 173.8 IU/L
  Na: 142.2 meq/L
  PL: 140 mg/dL
  RALB: 3 g/dL
  TBIL: 0.006 mg/dL
  TC: 74.6 mg/dL
  TG: 93 mg/dL
  TP: 5.5 g/dL
  gamma-GTP: 2.2 IU/L
300 mg/kg, 3 h, dose level Low
  TERMINAL_BW: 219.6 g
  APTT: 23.3 s
  Bas: 0%
  Eos: 0.6%
  Fbg: 297.4 mg/dL
  Hb: 13.6 g/dL
  Ht: 40.9%
  Lym: 84.4%
  MCHC: 33.3%
  MCV: 62.6 fL
  Mono: 1.6%
  Neu: 12.6%
  PT: 15.8 s
  Plat: 102 x10_4/uL
  RBC: 654 x10_4/ul
  Ret: 7.2%
  WBC: 80 x10_2/uL
  KIDNEY_L: 0.9 g
  KIDNEY_R: 1 g
  KIDNEY_TOTAL: 1.9 g
  LIVER: 9.9 g
  ALP: 1338.8 IU/L
  ALT: 43.4 IU/L
  AST: 77.6 IU/L
  BUN: 15.4 mg/dL
  CRE: 0.2 mg/dL
  DBIL: 0 mg/dL
  GLC: 178.6 mg/dL
  IP: 8.2 mg/dL
  K: 4.3 meq/L
  LDH: 149 IU/L
  Na: 141.6 meq/L
  PL: 131.8 mg/dL
  RALB: 2.9 g/dL
  TBIL: 0.016 mg/dL
  TC: 68.4 mg/dL
  TG: 87 mg/dL
  TP: 5.5 g/dL
  gamma-GTP: 1.8 IU/L
300 mg/kg, 6 h, dose level Low
  APTT: 23.9 s
  Bas: 0%
  Eos: 0.8%
  Fbg: 284.6 mg/dL
  Hb: 13 g/dL
  Ht: 40.1%
  Lym: 76.8%
  MCHC: 32.4%
  MCV: 63.6 fL
  Mono: 2.6%
  Neu: 18.8%
  PT: 16.7 s
  Plat: 120.1 x10_4/uL
  RBC: 631.8 x10_4/ul
  Ret: 7.6%
  WBC: 85.9 x10_2/uL
  KIDNEY_L: 0.9 g
  KIDNEY_R: 0.9 g
  KIDNEY_TOTAL: 1.9 g
  LIVER: 9 g
  ALP: 1332 IU/L
  ALT: 35.4 IU/L
  AST: 70.2 IU/L
  BUN: 10.2 mg/dL
  CRE: 0.2 mg/dL
  DBIL: 0.004 mg/dL
  GLC: 177.8 mg/dL
  IP: 9 mg/dL
  K: 4.3 meq/L
  LDH: 150.6 IU/L
  Na: 142.2 meq/L
  PL: 128.6 mg/dL
  RALB: 3 g/dL
  TBIL: 0.032 mg/dL
  TC: 64.2 mg/dL
  TG: 58 mg/dL
  TP: 5.3 g/dL
  gamma-GTP: 1.6 IU/L
300 mg/kg, 9 h, dose level Low
  TERMINAL_BW: 214.6 g
  APTT: 22.8 s
  Bas: 0%
  Eos: 0.8%
  Fbg: 295.4 mg/dL
  Hb: 13 g/dL
  Ht: 39.6%
  Lym: 78.6%
  MCHC: 32.8%
  MCV: 61.1 fL
  Mono: 2.4%
  Neu: 17.8%
  PT: 16.7 s
  Plat: 117.4 x10_4/uL
  RBC: 650.2 x10_4/ul
  Ret: 7.4%
  WBC: 72.2 x10_2/uL
  KIDNEY_L: 1 g
  KIDNEY_R: 1 g
  KIDNEY_TOTAL: 2 g
  LIVER: 9.5 g
  ALP: 1341.8 IU/L
  ALT: 35.8 IU/L
  AST: 66.2 IU/L
  BUN: 10.8 mg/dL
  CRE: 0.1 mg/dL
  DBIL: 0.002 mg/dL
  GLC: 185.8 mg/dL
  IP: 9.8 mg/dL
  K: 4.3 meq/L
  LDH: 132 IU/L
  Na: 142.4 meq/L
  PL: 109.4 mg/dL
  RALB: 2.9 g/dL
  TBIL: 0.024 mg/dL
  TC: 54.2 mg/dL
  TG: 57.2 mg/dL
  TP: 5.3 g/dL
  gamma-GTP: 1.8 IU/L
[5]
  TERMINAL_BW: 226.8 g
  APTT: 23.3 s
  Bas: 0%
  Eos: 0.6%
  Fbg: 307.6 mg/dL
  Hb: 13.2 g/dL
  Ht: 40.1%
  Lym: 81.8%
  MCHC: 32.9%
  MCV: 62.6 fL
  Mono: 2.2%
  Neu: 14.6%
  PT: 17 s
  Plat: 116.4 x10_4/uL
  RBC: 639.6 x10_4/ul
  Ret: 7.3%
  WBC: 87.1 x10_2/uL
  KIDNEY_L: 1 g
  KIDNEY_R: 1.1 g
  KIDNEY_TOTAL: 2.1 g
  LIVER: 11.5 g
  ALP: 1893.6 IU/L
  ALT: 37.4 IU/L
  AST: 66.4 IU/L
  BUN: 15.8 mg/dL
  CRE: 0.2 mg/dL
  DBIL: 0 mg/dL
  GLC: 187.6 mg/dL
  IP: 7.2 mg/dL
  K: 4.3 meq/L
  LDH: 167 IU/L
  Na: 141.2 meq/L
  PL: 130 mg/dL
  RALB: 3.1 g/dL
  TBIL: 0.002 mg/dL
  TC: 48.2 mg/dL
  TG: 223.8 mg/dL
  TP: 5.6 g/dL
  gamma-GTP: 1.4 IU/L
